Tests used:
[1] = molecular target: T1, GalU (Shigella sonnei, UniProt Q3Z0V1); assay: microscale thermophoresis (MST) with purified GalU; supported by malachite green enzyme inhibition ([…] decrease at […]); assay type: binding
T1 construct: intact galU gene in pET28a (His-tagged)

[2] = molecular target: T2, GalU (Klebsiella oxytoca, UniProt A0A163UX09); assay: microscale thermophoresis (MST) with expressed GalU homolog; assay type: binding
T2 construct: galUK.o in pET28a
T2 sequence (A0A163UX09 entry or part of it): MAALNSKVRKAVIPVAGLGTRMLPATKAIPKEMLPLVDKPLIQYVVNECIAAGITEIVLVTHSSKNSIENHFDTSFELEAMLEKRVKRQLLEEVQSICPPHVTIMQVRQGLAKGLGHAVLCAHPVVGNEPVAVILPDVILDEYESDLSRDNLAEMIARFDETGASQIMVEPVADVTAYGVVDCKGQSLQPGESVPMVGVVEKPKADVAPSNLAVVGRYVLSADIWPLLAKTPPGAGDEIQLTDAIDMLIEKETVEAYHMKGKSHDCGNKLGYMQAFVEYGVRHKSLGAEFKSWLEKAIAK

T1 sequence (Q3Z0V1 entry or part of it): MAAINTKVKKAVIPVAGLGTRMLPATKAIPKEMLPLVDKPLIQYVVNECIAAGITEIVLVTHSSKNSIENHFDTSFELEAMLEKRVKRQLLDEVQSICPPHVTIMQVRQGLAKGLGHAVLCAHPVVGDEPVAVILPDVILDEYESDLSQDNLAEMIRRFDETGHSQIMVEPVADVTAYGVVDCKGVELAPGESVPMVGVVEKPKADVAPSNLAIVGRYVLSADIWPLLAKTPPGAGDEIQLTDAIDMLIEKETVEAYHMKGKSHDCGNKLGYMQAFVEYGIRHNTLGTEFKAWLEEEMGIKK

Compound `O=[N+]([O-])c1ccc2c(c1)S(=O)(=O)C=C2` [Stattic] has a Kd [1] of 20 ± 0.35 µM and a Kd [2] of 50 ± 0.25 µM.

— article PMC10734500, “Anti-virulence and bactericidal activities of Stattic against Shigella sonnei” (Applied and Environmental Microbiology, 2023)
